Earlier results as cited in patent USRE41489E1 (priority 1997, dated 2010).
Read-outs that look alike come from different tables or passages of the source.

Tests used:
[1] = conscious postoperative patients
[2] = estimated
[3] = parenteral, on a weight basis
[4] = rats
[5] = not given; remark: listed apart in the source
δ receptors = δ receptors (Homo sapiens, UniProt P41143)
[6] = intravenous single dose of about 0.3 mg

Sequence of δ receptors (P41143 whole entry): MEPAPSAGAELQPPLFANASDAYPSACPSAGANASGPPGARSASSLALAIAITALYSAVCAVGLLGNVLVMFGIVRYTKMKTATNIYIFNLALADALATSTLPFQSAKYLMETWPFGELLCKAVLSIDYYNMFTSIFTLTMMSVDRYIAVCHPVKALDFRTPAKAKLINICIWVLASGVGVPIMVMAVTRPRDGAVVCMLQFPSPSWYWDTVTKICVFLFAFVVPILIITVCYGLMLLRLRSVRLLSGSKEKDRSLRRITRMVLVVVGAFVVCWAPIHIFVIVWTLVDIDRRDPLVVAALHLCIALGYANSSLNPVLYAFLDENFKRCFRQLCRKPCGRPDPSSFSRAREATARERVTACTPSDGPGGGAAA

CO[C@]12CC[C@@]3(C[C@@H]1[C@](C)(O)C(C)(C)C)[C@H]1Cc4ccc(O)c5c4[C@@]3(CCN1CC1CC1)[C@H]2O5 [buprenorphine, 21-cyclopropyl-7-[(S)-1-hydroxy-1,2,2-trimethylpropyl]-6,14-endo-ethano-6,7,8,14-tetrahydrooripavine]
Cmax (0.4 mg sublingual single dose): 0.50 ± 0.06 ng/mL | Tmax (0.4 mg sublingual single dose): 3.5 ± 0.667 h | systemic availability (0.4 mg sublingual single dose): 57.7% | Cmax (0.8 mg sublingual single dose): 1.04 ± 0.27 ng/mL | Tmax (0.8 mg sublingual single dose): 3.2 ± 0.817 h | systemic availability (0.8 mg sublingual single dose): 54.1% | total plasma clearance [1]: approximately 1.28 l/minute | bound to plasma proteins (plasma proteins): approximately 96% | oral bioavailability [2]: 15% | analgesic potency relative to meperidine [3]: about 600 times | analgesic potency relative to pentazocine [3]: about 200 times | time to highest concentrations in the liver ([4]; intramuscular administration): ≤ 40 min | time to highest concentrations in the liver ([4]; oral administration): ≤ 10 min | mean peak plasma buprenorphine concentration ([5]; intramuscular second 0.3-mg dose 3 hours after the initial intravenous dose): about 3.6 ng/ml | plasma concentration ([5]; intramuscular second 0.3-mg dose, after about 3 hours): about 0.4 ng/ml | plasma concentration ([5]; intravenous about 0.3 mg, after about 5 minutes): about 9 ng/ml | plasma concentration ([5]; intravenous about 0.3 mg, after about 3 hours): about 0.4 ng/ml | mean peak plasma drug concentration [5, 6]: about 18 ng/ml | time of mean peak plasma concentration [5, 6]: ≤ 2 min | binding affinity to δ receptors (δ receptors): lower affinity
